Experimental data as given in ChEMBL document CHEMBL1201862, “PubChem BioAssay data set” (2004).
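Grown in 96-well plates, cells were treated for 48 hours with each compound at five concentrations. Insufficient inhibition: endpoint recorded as highest concentration tested. GI50 is the concentration that inhibits growth by half.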 Calls of active or inactive are those of the source. Rule as the data show it: active = GI50 up to about 1.1 µM and inactive = higher.

Columns and labels:
Experiment in all cases: NCI tumour cell line growth inhibition, 48 h
MDA-MB-435 = system: MDA-MB-435
MDA-MB-231 = system: MDA-MB-231
K562 = system: K562
LOX IMVI = system: LOX IMVI
NCI-H522 = system: NCI-H522
CCRF-CEM = system: CCRF-CEM
NCI/ADR-RES = system: NCI/ADR-RES
SW-620 = system: SW-620
IGROV-1 = system: IGROV-1
A498 = system: A498
SK-MEL-2 = system: SK-MEL-2
MDA-N = system: MDA-N
SK-MEL-28 = system: SK-MEL-28
NCI-H226 = system: NCI-H226
COLO 205 = system: COLO 205
SNB-19 = system: SNB-19
SR = system: SR
UACC-62 = system: UACC-62
OVCAR-8 = system: OVCAR-8
TK-10 = system: TK-10

SMILES	GI50 (MDA-MB-435)	GI50 (MDA-MB-231)	GI50 (K562)	GI50 (LOX IMVI)	GI50 (NCI-H522)	GI50 (CCRF-CEM)	GI50 (NCI/ADR-RES)	GI50 (SW-620)	GI50 (IGROV-1)	GI50 (A498)	GI50 (SK-MEL-2)	GI50 (MDA-N)	GI50 (SK-MEL-28)	GI50 (NCI-H226)	GI50 (COLO 205)	GI50 (SNB-19)	GI50 (SR)	GI50 (UACC-62)	GI50 (OVCAR-8)	GI50 (TK-10)
CCCc1c(OC)c(=O)c2c(O)cc(OC)c3c4c(OC)cc(O)c5c(=O)c(OC)c(CCC)c(c1c23)c54	1.85 µM (inactive)	2.46 µM (inactive)	2.33 µM (inactive)	1.63 µM (inactive)	1.53 µM (inactive)	1.26 µM (inactive)	5.26 µM (inactive)	3.15 µM (inactive)	2.98 µM (inactive)	10.6 µM (inactive)	6.64 µM (inactive)	4.05 µM (inactive)	5.68 µM (inactive)	3.46 µM (inactive)	4.35 µM (inactive)	4.32 µM (inactive)	0.31 µM (active)	10.3 µM (inactive)	0.944 µM (active)	44.7 µM (inactive)
COc1ccc(/N=C2\C(=S)N(c3ccc(OC)cc3)/C(=N/S(=O)(=O)c3ccccc3)N2c2ccccc2)cc1	7.87 µM (inactive)	4.79 µM (inactive)	1.02 µM (active)	3.59 µM (inactive)	1.64 µM (inactive)	2.59 µM (inactive)	23.6 µM (inactive)	2.62 µM (inactive)	12.9 µM (inactive)	> 100 µM (inactive)	7.64 µM (inactive)	3.93 µM (inactive)	13.8 µM (inactive)	16 µM (inactive)	8.81 µM (inactive)	36.9 µM (inactive)	0.889 µM (active)	6.07 µM (inactive)	3.95 µM (inactive)	14.7 µM (inactive)
CO[C@H](c1ccccc1)[C@H](O)[C@](O)(c1ccccc1)P(=O)(OC)OC	> 100 µM (inactive)	> 100 µM (inactive)	> 100 µM (inactive)	> 100 µM (inactive)	> 100 µM (inactive)	> 100 µM (inactive)	> 100 µM (inactive)	> 100 µM (inactive)	> 100 µM (inactive)	> 100 µM (inactive)	> 100 µM (inactive)	> 100 µM (inactive)	> 100 µM (inactive)	> 100 µM (inactive)	> 100 µM (inactive)	> 100 µM (inactive)	> 100 µM (inactive)	> 100 µM (inactive)	> 100 µM (inactive)	> 100 µM (inactive)
